In data set [1] the target is T1, Human AMPK α2β2γ1 (Homo sapiens, UniProt O43741+P54646).
T1 construct: The full length cDNAs of human AMPK β2 (NM_005399.3) and human AMPK α2 (NM_006252.3); The full length cDNAs of human AMPK β2 (NM_005399.3); the full length cDNA of human AMPK γ1 (NM_002733.3) had been inserted into pET28b(+); 6×His (N); made in house; host or cells: Escherichia coli BL21 CodonPlus (DE3)-RIL
Kind of data set: Test Example 2: activation of phosphorylated human AMPK α2β2γ1 (mobility-shift kinase assay, FL-Peptide 7). It is filed as biochemical. Particulars: for EC150: compound concentration showing 150% relative to the control (100%), human AMPK α2β2γ1 phosphorylated with CaMKK2; for Emax: maximum rate of increase in activity within the measurement range, control = 100%, read-out: Emax. Summed up: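 His-tagged α2β2γ1 expressed in E. coli was pre-phosphorylated by GST-CaMKKβ (25 °C, 1–1.5 h), then exposed to compound for 10 min (1% DMSO). Reaction: pH 7.0 HEPES, ATP and 1.5 μM FL-Peptide 7 (final), 2 h at 25 °C. Mobility-shift conversion gave % activity increase versus compound-free control.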

Data set [2] deals with phosphorylation of endogenous acetyl-CoA carboxylase (ACC) in L6-GLUT4myc myoblasts. Kind of data set: Test Example 3: cell-based ELISA of ACC (Ser79) phosphorylation for AMPK activation in L6-GLUT4myc myoblasts. The note with it: for EC (150% of control): concentration causing 150% relative to vehicle control (100%), 3 hours, phospho-ACC; for Emax: maximum response within varying concentrations, vehicle control = 100%. The method, then:
Cell-based assay for AMPK activation potency of compounds was performed with L6-GLUT4myc myoblasts (J. Biol. Chem. 278:17953-62, 2003) in a 96-well or 384-well plate by detecting the phosphorylation of endogenous acetyl-CoA carboxylase (ACC) using cell-based ELISA method. The cells were seeded in a 96-well plate at a density of 2×10^4 cells per well or in a 384-well plate at a density of 3.5×10^3 cells per well in minimum essential media (α-MEM) supplemented with 10% fetal bovine serum, 100 U/mL penicillin, 100 μg/mL streptomycin, 2 μg/mL blasticidin S hydrochloride and 0.5 mg/mL G418 disulfate, and maintained in a humidified atmosphere of 95% air and 5% CO2 at 37° C. for 24 hours. Following the overnight culture with an assay buffer consisting of 0.1% bovine serum albumin (BSA), 100 U/mL penicillin and 100 μg/mL streptomycin, cells were treated with varying concentrations of compounds or vehicle (dimethyl sulfoxide at a final concentration of 0.33%) in the presence of 0.1% BSA or 4% BSA for 3 hours at room temperature. After fixing cells with ice-cold 4% formaldehyde in Tris-buffered saline (TBS) for 30 min, the fixed cells were rinsed with TBS containing 0.1% or 0.01% Triton X-100 (TBS-T) and quenched with 0.6% hydrogen peroxide in TBS-T, and blocked with a blocking reagent (Blocking One P manufactured by Nacalai Tesque). Then, anti-phospho-ACC (Ser79) antibody as the primary antibody (manufactured by Cell Signaling Technology) diluted with TBS-T containing 5% Blocking One P was added to each well and the plate was incubated overnight at 4° C. After rinsing each well with TBS-T, horseradish peroxidase (HRP)-conjugated anti-rabbit IgG as the secondary antibody diluted with TBS-T containing 5% Blocking One P was added to each well and the plate was incubated for 1 hour in 96-well plate or for 5 hours in 384-well plate at room temperature. Each well of the plate was rinsed with TBS-T and added a chemiluminescent reagent (ImmunoStar® LD manufactured by Wako Pure Chemical Industries) for detection of HRP conjugates. Ten minutes later, the luminescence intensity was measured using luminometer (ViewLux or ARVO manufactured by PerkinElmer). The luminescence in the presence of compound was calculated as the rate of change relative to vehicle control, which is in the absence of compound.
A general note: An ELISA detects its analyte on a solid surface through an enzyme-linked reagent.

A short description of data set [3]: BA test (oral absorption). It is filed as in vivo. Particulars: rat, plasma; rats; calculated from AUCs of oral and intravenous administration groups. The method, then: • (1) Animals: mice or rats • (2) Animal husbandry: Mice and rats had free access to solid food and sterilized bottled tap water. • (3) Setting of dose and group compositions: orally or intravenously administered at a predetermined dose Group compositions were as shown below. (Dose depends on the compound)
Oral: 1 to 30 mg/kg (n=2 to 3)
Intravenous: 0.5 to 10 mg/kg (n=2 to 3) • (4) Preparation of administration formulation: for oral administration, in a solution or a suspension state; for intravenous administration, in a solubilized state • (5) Dosing procedure: In oral administration study, the test substance was forcibly administered to the stomach by using a gavage tube. In intravenous administration study, the test substance was administered via tail vein using a syringe with a needle. • (6) Evaluation items: Blood was collected at each time point, and plasma concentration of the drug was determined by LC/MS/MS. • (7) Data analysis: Regarding the transition of the plasma concentration, area under the plasma concentration-time curve (AUC) was calculated by means of WinNonlin® program, respectively. Bioavailability (BA) was calculated from AUCs of the oral administration group and intravenous administration group.

T1 sequence (P54646 whole entry): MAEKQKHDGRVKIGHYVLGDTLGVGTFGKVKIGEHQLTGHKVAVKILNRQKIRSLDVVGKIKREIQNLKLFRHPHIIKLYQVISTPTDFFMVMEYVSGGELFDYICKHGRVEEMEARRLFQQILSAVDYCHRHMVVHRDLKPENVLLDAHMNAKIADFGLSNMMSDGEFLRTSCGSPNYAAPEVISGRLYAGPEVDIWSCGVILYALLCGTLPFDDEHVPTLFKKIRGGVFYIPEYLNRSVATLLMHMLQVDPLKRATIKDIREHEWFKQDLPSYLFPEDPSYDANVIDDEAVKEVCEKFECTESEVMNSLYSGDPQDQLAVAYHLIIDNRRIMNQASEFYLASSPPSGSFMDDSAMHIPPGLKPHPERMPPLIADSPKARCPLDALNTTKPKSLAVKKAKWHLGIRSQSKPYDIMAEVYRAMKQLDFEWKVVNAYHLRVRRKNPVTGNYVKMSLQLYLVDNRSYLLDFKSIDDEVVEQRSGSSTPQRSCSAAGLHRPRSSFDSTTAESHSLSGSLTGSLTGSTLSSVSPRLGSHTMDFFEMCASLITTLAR
T1 sequence (O43741 whole entry): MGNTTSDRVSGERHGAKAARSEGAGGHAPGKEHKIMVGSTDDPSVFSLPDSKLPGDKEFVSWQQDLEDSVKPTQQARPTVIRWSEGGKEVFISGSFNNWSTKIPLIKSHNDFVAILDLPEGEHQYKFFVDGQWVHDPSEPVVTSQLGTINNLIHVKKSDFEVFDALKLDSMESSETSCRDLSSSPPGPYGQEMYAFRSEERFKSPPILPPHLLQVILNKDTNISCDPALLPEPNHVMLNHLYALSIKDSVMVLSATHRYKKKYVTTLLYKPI
T1 sequence (P54619 whole entry partner): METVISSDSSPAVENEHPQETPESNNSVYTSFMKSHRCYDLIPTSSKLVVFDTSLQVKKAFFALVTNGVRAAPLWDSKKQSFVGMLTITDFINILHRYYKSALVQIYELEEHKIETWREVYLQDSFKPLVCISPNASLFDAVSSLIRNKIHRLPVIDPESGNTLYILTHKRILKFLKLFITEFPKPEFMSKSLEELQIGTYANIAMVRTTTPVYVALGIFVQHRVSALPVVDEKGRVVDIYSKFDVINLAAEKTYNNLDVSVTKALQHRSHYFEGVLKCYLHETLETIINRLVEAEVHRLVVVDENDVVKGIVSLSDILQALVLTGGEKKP

With `CS(C)(=O)=Nc1ccc(-c2ccc(-c3nc4cc(O[C@@H]5CO[C@H](CO)C5)[nH]c4cc3Cl)cc2)cc1` [Compound I-1-02], in data set [1], the EC150 is 2.2 nM and the Emax (in general, the maximal effect, on the per cent scale that the assay sets) came to 510%. Also, in data set [2], the EC (150% of control) was found to be 0.0113 µM and the Emax came out at 968%.
Take `CC(=O)N1CCC(Oc2ccc(-c3ccc(-c4nc5cc(O[C@@H]6CO[C@H]7[C@@H]6OC[C@H]7O)[nH]c5cc4F)cc3)cc2)C1` (stereo partly drawn) [Compound I-1-27]: in data set [1], the EC150 stood at 5.8 nM and the Emax was determined as 332%. In data set [2], the EC (150% of control) is 0.168 µM and the Emax was 473%. The bioavailability (as a rule, the share of a dose that reaches the circulation, judged against a reference dose that is usually intravenous) in data set [3] is 19.6%.
As for `CS(C)(=O)=Nc1ccc(-c2ccc(-c3nc4cc(O[C@@H]5CO[C@H](CO)C5)[nH]c4cc3F)cc2)cc1` [Compound I-1-47], in data set [1], the EC150 is on record as 0.96 nM and the Emax came out at 542%. In data set [2], this compound had an EC (150% of control) of 0.0039 µM and an Emax of 547%.
In the case of `O[C@@H]1CO[C@H]2[C@@H]1OC[C@H]2Oc1cc2nc(-c3ccc(-c4ccc(OC5CCNC5)cc4)cc3)c(F)cc2[nH]1` (stereo partly drawn) [Compound I-1-60], in data set [1], the EC150 was under 0.051 nM and the Emax was found to be 486%. Moreover, in data set [2], the EC (150% of control) amounted to 0.019 µM and the Emax amounted to 495%.
As for `C[S+]([O-])c1ccc(-c2ccc(-c3nc4cc(O[C@@H]5CO[C@H]6[C@@H]5OC[C@H]6O)[nH]c4cc3F)cc2)cc1` (stereo partly drawn) [Compound I-1-64], in data set [1], the EC150 is recorded as 1.6 nM and the Emax is 375%. In data set [2], this compound came in with an EC (150% of control) of 0.021 µM and an Emax of 509%. The bioavailability in data set [3] was 17.8%.
For `COCCOc1ccc(-c2ccc(-c3nc4cc(O[C@@H]5CO[C@H]6[C@@H]5OC[C@H]6O)[nH]c4cc3F)cc2)cc1` [Compound I-1-66], in that order: 8.5 nM, 333%, 0.103 µM, 635% and 38.8%.
In data set [2], `O=C1NCCC1Oc1ccc(-c2ccc(-c3nc4cc(O[C@@H]5CO[C@H]6[C@@H]5OC[C@H]6O)[nH]c4cc3F)cc2)cc1` (stereo partly drawn) [Compound I-1-70] displayed an EC (150% of control) of 0.156 µM and an Emax of 512%. In addition, in data set [3], the bioavailability is 25.5%.
Turning to `CC(C)(O)COc1ccc(-c2ccc(-c3nc4cc(O[C@@H]5CO[C@H]6[C@@H]5OC[C@H]6O)[nH]c4cc3F)cc2)cc1` [Compound I-2-13], in data set [1], the EC150 was found to be 3 nM and the Emax came to 652%. In data set [2], this compound showed an EC (150% of control) of 0.16 µM and a maximum response (Emax) of 650%. In addition, the bioavailability in data set [3] is 59%.
Take `COCC[S+]([O-])c1ccc(-c2ccc(-c3nc4cc(O[C@@H]5CO[C@H]6[C@@H]5OC[C@H]6O)[nH]c4cc3F)cc2)cc1` (stereo partly drawn) [Compound I-2-93]: in data set [1], the EC150 is listed as 1.1 nM and the Emax worked out at 652%.
Regarding `CS(=O)(=O)c1ccc(-c2ccc(-c3nc4cc(O[C@@H]5CO[C@H](CO)C5)[nH]c4cc3F)cc2)nc1` [Compound I-2-94], in data set [1], the EC150 was 0.99 nM and the maximal effect (Emax) is 652%.
As to `COCCS(=O)(=O)c1ccc(-c2ccc(-c3nc4cc(O[C@@H]5CO[C@H]6[C@@H]5OC[C@H]6O)[nH]c4cc3F)cc2)cc1` [Compound I-2-95], in data set [1], the EC150 is on record as 2.6 nM and the Emax came to 634%.
`COCCS(=N)(=O)c1ccc(-c2ccc(-c3nc4cc(O[C@@H]5CO[C@H]6[C@@H]5OC[C@H]6O)[nH]c4cc3F)cc2)cc1` (stereo partly drawn) [Compound I-2-96]: in data set [1], the EC150 was 2.9 nM and the Emax worked out at 631%.
For `O=C(c1ccc(-c2ccc(-c3nc4cc(O[C@@H]5CO[C@H](CO)C5(F)F)[nH]c4cc3F)cc2)cc1)N1CCOCC1` [Compound I-2-97], in data set [1], the EC150 turned out to be 4.6 nM and the Emax is 527%.

These data come from US10478425B2, “5-phenylazaindole derivative having AMPK-activating activity” (Shionogi & Co., Ltd., priority 2016, dated 2019).
